Paper PMC5622107, “Small molecule inhibition of cGAS reduces interferon expression in primary macrophages from autoimmune mice” (Nature Communications, 2017)
Entries after “also recorded” stand apart in the source; their conditions may differ. Like-named read-outs stand apart in the source and are kept apart here.

Columns and labels:
mouse cGAS = target: T1, mouse cGAS (Mus musculus, UniProt Q8C6L5); test: RapidFire mass spectrometry (RF-MS) cGAS enzymatic assay, cGAMP product formation; type: biochemical; conditions: for IC50: read-out: IC50
T1 construct: recombinant full-length mouse cGAS in reaction buffer; His6-SUMO (N, cleaved yes); made in house; host or cells: E. coli BL21(DE3) RIL
Outline: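 Reactions were stopped with 0.5% formic acid, then ATP, GTP and cGAMP were separated by solid-phase extraction on graphitic carbon and detected by negative-ion MS. Product formation (%) = AUCcGAMP×100/(AUCcGAMP + ½AUCATP + ½AUCGTP). Percent inhibition was normalized to positive and negative controls.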

45-bp dsDNA = test: DNA intercalation: acridine orange displacement from dsDNA by fluorescence polarization; type: binding
Procedure: Ten microliters of HEN buffer (10 mM HEPES pH 7.5, 1 mM EDTA pH 7.5, 100 mM NaCl) were dispensed per well using a Thermo Multidrop Combi dispenser (Thermo Scientific). The liquid was collected at the well bottom using centrifugation for 30 s at 180×g. […] The final concentration of compounds in the assay was 30 µM. […] The liquid was collected at the well bottom using centrifugation for 30 s at 180×g. […] The liquid was collected at the well bottom using centrifugation for 30 s at 180 × g and the plates were incubated for 30 min. Mitoxantrone, a known DNA intercalator was used at 50 µM as a positive control, while DMSO alone was used as negative control. FP was measured using a Biotek Synergy Neo plate reader. […] All FP values are expressed in millipolarization (mP) units. The mP values were calculated using the equation mP = 1000 × [(I S−I SB)−(I P−I PB)]/[I S—I SB) + (I P−I PB)], where I S and […] to the parallel and perpendicular emission intensity, respectively, and I SB and I SP corresponds to parallel emission intensity perpendicular emission intensity of the buffer, respectively. The experimental G-factor, defined as G = I S/I P, was set to 1.0 in all experiments.

[1] = tested on: RAW macrophage cells stimulated with 5′ppp-HP20 RNA, Pam3CSK4, poly(I:C), LPS or recombinant Ifnb; test: Selectivity: RAW macrophages stimulated with non-DNA immunogenic ligands (luciferase reporter or Il-6 qRT-PCR); type: cell-based, mouse
Procedure: The sequence and annealing conditions of the dsDNA used is described above. Typically, 0.4 µg or 0.6 µg of dsDNA was used to stimulate RAW-Lucia ISG-KO-TREX1/ISG-KO-cGAS or RAW-Lucia ISG cells, respectively, which equated to 90% of maximal luciferase activity observed. dsDNA stimulation of RAW macrophages and subsequent luciferase measurements were performed with or without the addition of small molecules at indicated concentrations in each figure, or with DMSO as vehicle control. For the dose curve experiments, serial dilutions of inhibitors were applied to 6.7 × 10^5 cells, plated in 24-well dishes, and co-stimulated with 0.4 µg of dsDNA. In subsequent experiments using inhibitors in RAW cells, the small molecules were used at concentrations representing the derived EC75 values, while co-stimulated with one of the following: 0.4 µg dsDNA, 50 nM 5′ppp-HP20 hairpin RNA (a kind gift from Dr Anna Pyle, Yale University; sequence located in Supplementary Table 5), 10 µM cGAMP, or 100 U ml^−1 murine recombinant Ifnb (R&D Systems). dsDNA was transfected using Lipofectamine LTX. 5′ppp-HP20 RNA was transfected using Lipofectamine 2000. Cells were harvested 24 h post-transfection, washed with PBS, and lysed in 1× Luciferase Cell Lysis Buffer (Pierce).
The minimum numbers of biological and technical replicates for the luciferase assays were two and three, respectively. Analysis of luminescence values were evaluated for outliers (one standard deviation above and below the mean) for each biological replicate, and the resulting means were used to generate graphs in GraphPad Prism (v. 7.0c); where applicable, an unpaired t-test with Welch’s correction was used to compare the results of each individual compound to dsDNA or other stimulant. The experimental variances observed within control samples (untreated or vehicle) and treated samples were similar.
The small molecules were used at concentrations representing the EC75 values and were co-stimulated with either 200 ng Pam3CSK4 (Invivogen), 25 µg poly(I:C) or 100 ng lipopolysaccharide (Sigma-Aldrich) at the cell counts and conditions previously described for the cellular luciferase assays. Cells were harvested 24 h post-transfection, washed with PBS, and RNA was extracted using Trizol (Ambion) and chloroform (Sigma-Aldrich). In all, 1–2 µg of total RNA was reverse-transcribed using random hex primers and SuperScript III (Life Technologies) into cDNA. […] The expression of mRNAs […] murine Actb1 and Il-6 were measured (see Supplementary Table 5 for primer sequences used). Target C T values were normalized to Actb1 C T values and used to calculate ΔC T. mRNA expression of target genes were then calculated using the ΔΔC T method (2^ΔΔCT). Expression values were analyzed as described in the method for cellular luciferase assays.

[2] = Supplementary Table 3, analogs more potent than RU166365

T1 sequence (Q8C6L5 whole entry): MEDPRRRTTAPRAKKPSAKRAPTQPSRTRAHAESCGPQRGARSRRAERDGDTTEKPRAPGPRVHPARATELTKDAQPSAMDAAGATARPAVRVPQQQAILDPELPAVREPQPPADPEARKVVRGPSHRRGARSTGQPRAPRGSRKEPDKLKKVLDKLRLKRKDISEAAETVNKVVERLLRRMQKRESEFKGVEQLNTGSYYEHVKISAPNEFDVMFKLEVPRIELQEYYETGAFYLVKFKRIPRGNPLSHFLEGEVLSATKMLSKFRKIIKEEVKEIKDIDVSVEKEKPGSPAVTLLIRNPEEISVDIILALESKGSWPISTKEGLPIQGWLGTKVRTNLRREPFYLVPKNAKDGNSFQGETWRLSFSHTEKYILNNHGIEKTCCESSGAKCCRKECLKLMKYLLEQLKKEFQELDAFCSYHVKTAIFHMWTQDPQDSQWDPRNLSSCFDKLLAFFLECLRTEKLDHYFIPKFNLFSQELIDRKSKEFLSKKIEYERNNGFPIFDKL

| IC50 (mouse cGAS; [2]) [µM] | effect of structural modification on cGAS inhibitory potency (mouse cGAS; compared with RU.365) | improvement in potency (mouse cGAS; relative to RU.365) [fold] | IC50 (mouse cGAS; Supplementary Table 2, batch of compounds stored in the screening library) [µM] | inhibition at 12.5 µM (mouse cGAS; Supplementary Table 2, compound 12.5 µM, read-out: % inhibition at 12.5 µM) [%] | Polarization (45-bp dsDNA; Supplementary Table 2, compound 30 µM) [mP] | Compound | DNA intercalation or interaction (45-bp dsDNA; acridine orange competition screen) | inhibition of cells stimulated with recombinant Ifnb ([1]; JAK/STAT signaling, luciferase reporter) | suppression of activation by immunogenic stimuli other than dsDNA ([1]; compound at EC75, 5′ppp-HP20 RNA, Pam3CSK4, poly(I:C), LPS, Ifnb, listed as RU.521) | % intercalation at 30 µM (45-bp dsDNA; Supplementary Table 2, acridine orange displacement compared to mitoxantrone) [%] | Il-6 mRNA expression ([1]; cells activated by Pam3CSK4, poly(I:C), or LPS, qRT-PCR) |
| --- | --- | --- | --- | --- | --- | --- | --- | --- | --- | --- | --- |
| 0.11 | increased inhibitory potency | 17 | – | – | – | Cc1nn(-c2nc3ccc(Cl)c(Cl)c3[nH]2)c(O)c1C1OC(=O)c2ccccc21 (stereo not drawn) [RU320521, 3-[1-(6,7-dichloro-1H-benzimidazol-2-yl)-5-hydroxy-3-methyl-pyrazol-4-yl]-3H-isobenzofuran-1-one] | did not show any indication that it could act in a manner that could intercalate or interact with DNA | did not inhibit | unable to potently suppress activation; also recorded: little to no inhibitory effects | – | – |
| 1.89 | – | – | 0.52 | 99 | 264 | Cc1nn(-c2nc3ccccc3[nH]2)c(O)c1C1OC(=O)c2ccccc21 (stereo not drawn) [RU166365] | – | – | – | -6.7 | increased Il-6 messenger RNA (mRNA) expression |
